According to paper PMC10993414, “Water Quality Monitoring with the Multiplexed Assay MitoOxTox for Mitochondrial Toxicity, Oxidative Stress Response, and Cytotoxicity in AREc32 Cells” (Environmental Science & Technology, 2024):
Like-named read-outs stand apart in the source and are kept apart here.

Legend:
[1] = system: Nrf2-mediated oxidative stress response pathway (ARE) in AREc32 cells
[2] = system: Nrf2-mediated oxidative stress response pathway (ARE) in AREc32 cells; assay: cells; details: Arec32, 24 h, read-out: Oxidative stress response ECIR1.5 (M)
[3] = system: AREc32 cells
[4] = system: mitochondrial membrane potential (MMP) in AREc32 cells
[5] = system: AREc32 cells; remark: listed apart in the source
[6] = experimental; ref PhysPropNCCT; cited from earlier work
[7] = system: mitochondrial membrane potential (MMP) in AREc32 cells; assay: Disruption of mitochondrial membrane potential (m-MPI red/green ratio), MitoOxTox; details: for MMP inhibition activity (in words): MitoOxTox, AREc32; for EC10: MMP, AREc32, 24 h
[8] = system: AREc32 cells; assay: Cytotoxicity with ImageXpress high-content imaging, MitoOxTox; details: AREc32, 24 h exposure; for Cytotoxicity ImageExpress IC10: 10% reduction in cell viability; for Cytotoxicity ImageExpress log(IC10 (M)): logarithm of IC10, Corning plates
[9] = system: AREc32 cells; assay: Cytotoxicity (cell confluency) with IncuCyte S3 live cell imaging, MitoOxTox; details: AREc32, 24 h exposure; for Cytotoxicity Incucyte IC10: 10% reduction in cell viability
[10] = system: mitochondrial membrane potential (MMP) in HepG2 cells; details: cited from earlier work; for MMP inhibition activity (in words): Tox21 MMP assay, HepG2
[11] = ref Cessna et al. 1978; cited from earlier work
[12] = system: oxidative stress response in AREc32 cells; set-up: method as in Escher et al. 42; details: original AREc32 reporter gene assay; ref Escher et al. 42; cited from earlier work
[13] = 10% reduction of MMP, AREc32, 24 h exposure
[14] = logarithm of EC10, AREc32, 24 h exposure
[15] = effect concentration leading to induction ratio 1.5, AREc32, 24 h exposure

Compound | EC (induction ratio 1.5) [2] [M] | Cytotoxicity Incucyte IC10 ([3]; human) [µM] | SRcytotoxicity ([4]; human) | Cytotoxicity ImageExpress IC10 ([5]; human) [µM] | Cytotoxicity ImageExpress log(IC10 (M)) ([5]; human) [M] | log Kow [L/L] [6] [L/L] | MMP inhibition EC10 [7, 13] [µM] | MMP inhibition log(EC10 (M)) [7, 14] | further results
O=[N+]([O-])c1ccc(O)c([N+](=O)[O-])c1 [2,4-Dinitrophenol] | 0.000156 | 281 | 35.1 | 426 | -3.37 | 1.67 | 12.1 | -4.92 M | activation of the oxidative stress response (in words) ([1]; AREc32): activated
CO/C=C(/C(=O)OC)c1ccccc1Oc1cc(Oc2ccccc2C#N)ncn1 [Azoxystrobin] |  |  |  |  |  | 2.50 | 15.9 | -4.80 M | Cytotoxicity ImageExpress IC10 [8]: > 105 µM; Cytotoxicity ImageExpress log(IC10 (M)) [8]: no cytotoxicity; Oxidative stress response ECIR1.5 [1, 15]: > 105 µM; Cytotoxicity Incucyte IC10 [9]: > 105 µM; Cytotoxicity Incucyte log(IC10 (M)) ([9]; logarithm of IC10, Corning plates): no cytotoxicity
O=C(Nc1ccccc1-c1ccc(Cl)cc1)c1cccnc1Cl [Boscalid] | > 8.32e-05 |  |  |  |  | 2.96 | > 83.2 | no Effect | Cytotoxicity Incucyte log(IC10 (M)) [3]: no cytotoxicity; Cytotoxicity Incucyte IC10 ([3]; human, 24 h): > 83.2 µM; MMP inhibition activity (in words) [10]: inactive; Cytotoxicity ImageExpress log(IC10 (M)) [5]: no cytotoxicity; Cytotoxicity ImageExpress IC10 ([5]; human, 24 h): > 83.2 µM; MMP inhibition EC10 (M) ([7]; 10% reduction of MMP, AREc32, 24 h exposure, listed as boscalid): > 8.32 × 10^–5 M; MMP inhibition activity (in words) [7]: inactive
N#Cc1cc(Br)c(O)c(Br)c1 [Bromoxynil] |  |  |  |  |  |  | 21.9 | -4.66 M | pKa (Acid) [11]: 4.21
CC1=C(C(=O)Nc2ccccc2)SCCO1 [Carboxin] | 0.00014 |  |  |  |  | 2.14 | 152 | -3.82 M | activation of the oxidative stress response (in words) ([1]; AREc32): activated; Cytotoxicity Incucyte IC10 ([3]; human, 24 h): 1080 µM; Cytotoxicity ImageExpress log(IC10 (M)) [5]: no cytotoxicity; Cytotoxicity ImageExpress IC10 ([5]; human, 24 h): > 429 µM; EC10 [7]: 152 µM
CNC(=O)/C(=N/OC)c1ccccc1COc1cc(C)ccc1C [Dimoxystrobin] |  |  |  |  |  |  | 0.439 | -6.36 M | Oxidative stress response ECIR1.5 [1, 15]: > 206 µM; Cytotoxicity Incucyte IC10 [3]: 129 µM; SRcytotoxicity [4]: 324; Cytotoxicity ImageExpress IC10 [5]: 142 µM; Cytotoxicity ImageExpress log(IC10 (M)) [5]: -3.85 M
CC(C)(C)c1ccc(CCOc2ncnc3ccccc23)cc1 [Fenazaquin] | > 0.000314 |  | 9356 |  |  | 5.51 | 0.0118 | -7.93 M | Cytotoxicity ImageExpress IC10 [8]: 110 µM; Cytotoxicity ImageExpress log(IC10 (M)) [8]: -3.96 M; Cytotoxicity Incucyte IC10 [9]: 100 µM; MMP inhibition activity (in words) [10]: only active in the MitoOxTox assay; MMP inhibition activity (in words) [7]: active
CC(C)Oc1cccc(NC(=O)c2ccccc2C(F)(F)F)c1 [Flutolanil] | > 0.000226 | 106 | 5.5 | 138 | -3.86 | 3.7 | 25.2 | -4.60 M | 
Oc1c(Cl)cc(Cl)c(Cl)c1Cc1c(O)c(Cl)cc(Cl)c1Cl [Hexachlorophene] | > 9.31e-05 | 5.46 | 38.6 | 10.7 | -4.97 |  |  |  | MMP inhibition EC10 [7]: 0.276 µM; MMP inhibition log(EC10 (M)) [7]: -6.56 M
Oc1c(Cl)c(Cl)c(Cl)c(Cl)c1Cl [Pentachlorophenol] | 6.91e-05 | 67.9 | 6.6 | 74.4 | -4.13 |  |  |  | activation of the oxidative stress response (in words) [1]: activated; SRcytotoxicity (oxidative stress response) ([1]; human): 6.6; MMP inhibition EC10 [7]: 11.2 µM; MMP inhibition log(EC10 (M)) [7]: -4.95 M
CO/C=C(/C(=O)OC)c1ccccc1COc1cccc(C(F)(F)F)n1 [Picoxystrobin] |  |  |  |  |  |  | 1.35 | -5.87 M | Cytotoxicity ImageExpress IC10 [8]: 80.1 µM; Cytotoxicity ImageExpress log(IC10 (M)) [8]: -4.10 M; Oxidative stress response ECIR1.5 [1, 15]: > 139 µM; Cytotoxicity Incucyte IC10 [9]: 77.7 µM; SRcytotoxicity [4]: 59.5
C=C(C)[C@H]1Cc2c(ccc3c2O[C@@H]2COc4cc(OC)c(OC)cc4[C@@H]2C3=O)O1 [Rotenone] | > 6.57e-07 | 0.212 | 46 | 0.242 | -6.62 | 4.1 | 0.00531 | -8.27 M | 
CCC/C=C/C=C/C(=O)O[C@H]1/C(=C/C(=O)OC)C[C@H]2C[C@H]([C@@H](C)O)OC(=O)C[C@H](O)C[C@@H]3C[C@H](OC(C)=O)C(C)(C)[C@](O)(C[C@@H]4C/C(=C/C(=O)OC)C[C@H](/C=C/C(C)(C)[C@]1(O)O2)O4)O3 [bryostatin 1] |  |  |  |  |  |  |  |  | EC50 ([10]; HepG2 cells, 1 h of exposure, read-out: EC50 (decrease of MMP)): 0.0096 µM
CC(C)(C)c1cc(O)ccc1O [tBHQ, tert-butylhydroquinone] |  |  |  |  |  |  |  |  | ECIR1.5 ([1]; current study, multiplexed MitoOxTox, AREc32): 3.14 µM; ECIR1.5 [12]: 1.32 µM
Oligomycin A |  |  |  |  |  |  | 0.000235 | -9.63 M | Oxidative stress response ECIR1.5 [1, 15]: > 12.7 µM; EC10 [7]: 0.00024 µM
Tributyltin chloride |  |  |  |  |  |  |  |  | Oxidative stress response ECIR1.5 [1]: > 1.23 µM; MMP inhibition EC10 [7]: 0.0145 µM; MMP inhibition log(EC10 (M)) [7]: -7.84 M
